In publication PMC2364994, “Complexes With Biologically Active Ligands. Part 1. Synthesis of Coordination Compounds of Diazoxide With Transition- and Main-Group Cations” (Metal-Based Drugs, 1996) one finds IC50 data, which are given here for 2 substances.

The IC50 is the concentration that gives 50% inhibition. A lower IC50 goes with greater potency in that assay.

One test has as its target T1, Bovine CA II (Bos taurus, UniProt P00921).
T1 construct: gene CA2; commercial enzyme (Sigma Chemical Co.); isozyme described as erythrocyte CA
Put plainly: Maren's micromethod, CO2 hydration. In kind it is biochemical. Particulars: 0 °C, veronal buffer; E-I technique; unit shows as (M) in the extracted table, text says micromolar range.

For the next test, the target named is T2, human CA I (Homo sapiens, UniProt P00915).
T2 construct: gene CA1; commercial enzyme (Sigma Chemical Co.); isozyme described as erythrocyte CA
The experiment in a line: Maren's micromethod, CO2 hydration. In kind it is biochemical. Particulars: 0 °C, veronal buffer; E-I technique; unit shows as (M) in the extracted table, text says micromolar range.

T1 sequence (P00921 2-260): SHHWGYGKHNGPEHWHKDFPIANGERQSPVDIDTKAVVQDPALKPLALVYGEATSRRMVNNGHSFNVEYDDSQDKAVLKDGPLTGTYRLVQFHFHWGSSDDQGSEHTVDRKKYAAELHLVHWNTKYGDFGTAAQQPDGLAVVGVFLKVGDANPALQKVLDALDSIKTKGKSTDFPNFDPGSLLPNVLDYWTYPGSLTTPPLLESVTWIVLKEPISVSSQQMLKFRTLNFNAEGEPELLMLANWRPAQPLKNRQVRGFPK
T2 sequence (P00915 2-261): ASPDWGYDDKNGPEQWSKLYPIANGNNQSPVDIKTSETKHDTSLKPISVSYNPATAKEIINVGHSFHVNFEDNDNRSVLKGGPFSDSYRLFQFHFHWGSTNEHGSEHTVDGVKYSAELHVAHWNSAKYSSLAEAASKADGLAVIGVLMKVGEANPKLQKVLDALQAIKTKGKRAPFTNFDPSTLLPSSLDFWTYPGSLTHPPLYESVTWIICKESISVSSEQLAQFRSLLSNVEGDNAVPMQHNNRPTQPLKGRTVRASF

For the substance [PDZO)(OH)a].2HO [compound 14], the IC50 against Bovine CA II was 6e-05 M; on human CA I, 7.2e-05 M.
Taken in the same sequence, the figures for [VO(DZO)(OH)].HO [compound 17] were 0.000125 M and 0.000105 M.
